Holding throughout (assay type): binding
One experiment deals with T1, PI3 Kbeta (PI3 Kb) (Homo sapiens, UniProt P42338).
T1 construct: endogenous in cells; host or cells: cell lysate
Nature of the experiment: kinobeads assay, PI3Kbeta. As to conditions: kinobeads assay, Table 6; read-out: Inhibition values (IC50) PI3Kb. The method in brief: (§1)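 In this bead competition format, compound and immobilized phenylmorpholin-chromen ligand compete for kinases in cell lysate. Eluted captured kinases were measured by multiplexed immunodetection, and IC50 was calculated.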

In the next experiment the target is T2, PI3 Kgamma (PI3 Kg) (Homo sapiens, UniProt P48736).
T2 construct: endogenous in cells; host or cells: cell lysate
Nature of the experiment: kinobeads assay, PI3Kgamma. As to conditions: kinobeads assay, Table 6; read-out: Inhibition values (IC50) PI3Kg. In short, it runs like this:
as §1

A further experiment has as its target T3, PI3K delta (PI3 Kd) (Homo sapiens, UniProt O00329).
T3 construct: endogenous in cells; host or cells: Jurkat, clone E6-1 (ATCC TIB-152) cell lysate
Nature of the experiment: kinobeads assay, PI3K delta. The following applies: kinobeads assay, read-out: Inhibition values (IC50) PI3Kd. In short, it runs like this:
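Competitive binding in Jurkat cell lysate (5 mg/mL protein) against beads carrying an immobilized phenylmorpholin-chromen ligand, in DP buffer pH 7.4 with NP40, DTT and NaF. Bead-bound kinases were eluted and quantified by antibody dot blot with infrared detection, and IC50 was taken from dose-response curves of a 1:3 dilution series.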

A further experiment deals with T4, PI3Kalpha (PI3Ka) (Homo sapiens, UniProt P42336).
T4 construct: endogenous in cells; host or cells: cell lysate
The experiment in a line: kinobeads assay, PI3Kalpha. As to conditions: kinobeads assay, Table 6; for pIC50: read-out: Inhibition values (IC50) PI3Ka. In short, it runs like this:
as §1

pIC50: −log10 of the molar value. Read-outs that look alike come from different tables or passages of the source.

T4 sequence (P42336 whole entry): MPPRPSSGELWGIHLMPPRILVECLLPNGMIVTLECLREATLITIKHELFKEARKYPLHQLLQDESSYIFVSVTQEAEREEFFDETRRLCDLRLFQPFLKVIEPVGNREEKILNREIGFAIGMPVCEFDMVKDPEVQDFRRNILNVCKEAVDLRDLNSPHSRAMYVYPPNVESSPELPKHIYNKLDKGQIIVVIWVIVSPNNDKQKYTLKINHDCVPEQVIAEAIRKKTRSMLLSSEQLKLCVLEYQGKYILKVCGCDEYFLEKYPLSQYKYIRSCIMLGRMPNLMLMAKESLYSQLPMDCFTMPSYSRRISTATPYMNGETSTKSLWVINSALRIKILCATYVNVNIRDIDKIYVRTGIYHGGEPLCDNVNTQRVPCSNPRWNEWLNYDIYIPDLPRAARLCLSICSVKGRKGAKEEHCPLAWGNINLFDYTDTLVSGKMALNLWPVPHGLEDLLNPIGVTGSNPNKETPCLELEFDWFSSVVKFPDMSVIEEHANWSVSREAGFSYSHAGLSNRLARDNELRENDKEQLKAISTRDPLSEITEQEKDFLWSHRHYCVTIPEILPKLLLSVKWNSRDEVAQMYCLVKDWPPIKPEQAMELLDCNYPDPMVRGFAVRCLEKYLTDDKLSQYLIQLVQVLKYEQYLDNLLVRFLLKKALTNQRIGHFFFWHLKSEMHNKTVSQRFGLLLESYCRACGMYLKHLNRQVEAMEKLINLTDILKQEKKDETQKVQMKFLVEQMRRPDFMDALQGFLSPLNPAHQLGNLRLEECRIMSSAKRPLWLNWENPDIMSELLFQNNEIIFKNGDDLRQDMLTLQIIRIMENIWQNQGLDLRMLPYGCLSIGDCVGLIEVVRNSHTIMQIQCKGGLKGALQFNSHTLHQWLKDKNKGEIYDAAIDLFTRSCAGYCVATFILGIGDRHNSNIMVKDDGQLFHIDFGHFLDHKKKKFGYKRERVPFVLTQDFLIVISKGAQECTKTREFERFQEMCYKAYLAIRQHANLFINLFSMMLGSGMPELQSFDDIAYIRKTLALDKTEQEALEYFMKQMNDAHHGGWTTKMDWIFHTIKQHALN
T4 sequence (P27986 whole entry partner): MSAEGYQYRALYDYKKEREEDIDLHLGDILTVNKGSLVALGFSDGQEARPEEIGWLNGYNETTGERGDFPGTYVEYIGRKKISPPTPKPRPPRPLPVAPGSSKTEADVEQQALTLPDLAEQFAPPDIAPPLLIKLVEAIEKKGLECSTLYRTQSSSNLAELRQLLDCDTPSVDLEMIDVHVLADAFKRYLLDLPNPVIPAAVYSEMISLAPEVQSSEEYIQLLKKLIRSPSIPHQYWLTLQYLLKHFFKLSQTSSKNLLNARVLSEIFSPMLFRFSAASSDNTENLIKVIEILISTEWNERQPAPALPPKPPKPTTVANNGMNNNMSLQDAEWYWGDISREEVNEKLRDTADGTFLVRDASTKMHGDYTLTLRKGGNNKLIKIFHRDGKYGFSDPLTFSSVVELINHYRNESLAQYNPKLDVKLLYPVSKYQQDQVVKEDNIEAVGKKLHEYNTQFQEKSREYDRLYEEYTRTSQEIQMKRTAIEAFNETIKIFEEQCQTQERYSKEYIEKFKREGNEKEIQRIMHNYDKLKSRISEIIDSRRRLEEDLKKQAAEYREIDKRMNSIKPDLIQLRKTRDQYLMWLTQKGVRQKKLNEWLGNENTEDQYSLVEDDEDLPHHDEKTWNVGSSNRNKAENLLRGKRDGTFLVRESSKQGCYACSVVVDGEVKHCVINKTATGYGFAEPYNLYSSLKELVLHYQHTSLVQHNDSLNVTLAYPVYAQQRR
T3 sequence (O00329 whole entry): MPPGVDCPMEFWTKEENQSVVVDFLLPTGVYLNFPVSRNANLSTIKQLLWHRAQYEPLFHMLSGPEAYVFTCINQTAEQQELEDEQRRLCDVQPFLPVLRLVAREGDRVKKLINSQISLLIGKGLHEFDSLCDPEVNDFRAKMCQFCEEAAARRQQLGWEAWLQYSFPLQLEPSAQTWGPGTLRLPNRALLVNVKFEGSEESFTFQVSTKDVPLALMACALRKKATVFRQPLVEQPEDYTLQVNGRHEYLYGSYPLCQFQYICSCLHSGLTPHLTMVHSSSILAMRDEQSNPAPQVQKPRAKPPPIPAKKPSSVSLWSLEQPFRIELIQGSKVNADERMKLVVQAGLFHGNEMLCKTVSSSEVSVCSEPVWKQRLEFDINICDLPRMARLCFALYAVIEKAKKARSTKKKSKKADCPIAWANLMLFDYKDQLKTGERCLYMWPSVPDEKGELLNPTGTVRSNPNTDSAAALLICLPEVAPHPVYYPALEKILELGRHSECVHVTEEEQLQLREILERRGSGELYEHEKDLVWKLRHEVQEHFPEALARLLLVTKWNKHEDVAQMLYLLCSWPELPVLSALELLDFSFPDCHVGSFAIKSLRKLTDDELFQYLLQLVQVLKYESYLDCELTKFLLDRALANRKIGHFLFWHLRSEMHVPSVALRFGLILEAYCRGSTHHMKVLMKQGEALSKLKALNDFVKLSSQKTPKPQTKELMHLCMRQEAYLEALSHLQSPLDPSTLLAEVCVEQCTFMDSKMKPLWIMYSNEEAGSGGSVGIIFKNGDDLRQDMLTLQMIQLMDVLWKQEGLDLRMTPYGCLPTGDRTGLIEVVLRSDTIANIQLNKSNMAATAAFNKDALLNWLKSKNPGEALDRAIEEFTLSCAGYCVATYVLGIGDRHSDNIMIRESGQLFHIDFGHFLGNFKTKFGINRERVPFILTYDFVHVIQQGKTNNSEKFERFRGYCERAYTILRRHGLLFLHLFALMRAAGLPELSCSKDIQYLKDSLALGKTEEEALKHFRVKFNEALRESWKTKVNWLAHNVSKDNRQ
T3 sequence (P27986 whole entry partner): as the sequence (P27986 whole entry partner) above
T2 sequence (P48736 whole entry): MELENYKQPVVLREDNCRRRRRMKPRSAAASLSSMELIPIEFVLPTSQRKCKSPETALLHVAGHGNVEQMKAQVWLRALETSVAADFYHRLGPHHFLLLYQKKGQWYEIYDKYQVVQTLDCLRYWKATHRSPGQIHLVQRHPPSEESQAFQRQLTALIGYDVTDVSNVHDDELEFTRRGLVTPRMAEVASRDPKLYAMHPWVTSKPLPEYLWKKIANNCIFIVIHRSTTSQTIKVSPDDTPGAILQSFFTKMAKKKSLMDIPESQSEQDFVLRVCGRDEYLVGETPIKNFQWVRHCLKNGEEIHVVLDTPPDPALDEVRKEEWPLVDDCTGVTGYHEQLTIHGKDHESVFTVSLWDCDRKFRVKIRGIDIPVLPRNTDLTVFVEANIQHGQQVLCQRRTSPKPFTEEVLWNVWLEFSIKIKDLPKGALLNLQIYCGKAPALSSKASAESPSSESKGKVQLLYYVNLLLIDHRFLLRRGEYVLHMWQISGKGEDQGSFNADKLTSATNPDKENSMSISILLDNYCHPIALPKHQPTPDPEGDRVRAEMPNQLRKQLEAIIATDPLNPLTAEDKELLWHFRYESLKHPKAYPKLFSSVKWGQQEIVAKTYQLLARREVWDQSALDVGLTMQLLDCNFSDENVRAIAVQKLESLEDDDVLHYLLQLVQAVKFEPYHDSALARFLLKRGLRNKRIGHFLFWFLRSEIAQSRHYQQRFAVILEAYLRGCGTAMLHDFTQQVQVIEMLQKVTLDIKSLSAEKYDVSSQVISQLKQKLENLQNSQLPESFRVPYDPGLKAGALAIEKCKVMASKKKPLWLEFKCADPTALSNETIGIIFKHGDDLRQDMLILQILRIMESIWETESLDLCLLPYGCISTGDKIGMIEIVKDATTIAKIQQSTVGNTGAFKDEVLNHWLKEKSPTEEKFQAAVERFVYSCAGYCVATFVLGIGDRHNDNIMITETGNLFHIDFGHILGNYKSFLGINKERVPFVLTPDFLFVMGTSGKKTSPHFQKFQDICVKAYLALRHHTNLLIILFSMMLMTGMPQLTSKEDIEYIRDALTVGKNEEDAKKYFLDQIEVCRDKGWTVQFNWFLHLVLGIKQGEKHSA
T1 sequence (P42338 whole entry): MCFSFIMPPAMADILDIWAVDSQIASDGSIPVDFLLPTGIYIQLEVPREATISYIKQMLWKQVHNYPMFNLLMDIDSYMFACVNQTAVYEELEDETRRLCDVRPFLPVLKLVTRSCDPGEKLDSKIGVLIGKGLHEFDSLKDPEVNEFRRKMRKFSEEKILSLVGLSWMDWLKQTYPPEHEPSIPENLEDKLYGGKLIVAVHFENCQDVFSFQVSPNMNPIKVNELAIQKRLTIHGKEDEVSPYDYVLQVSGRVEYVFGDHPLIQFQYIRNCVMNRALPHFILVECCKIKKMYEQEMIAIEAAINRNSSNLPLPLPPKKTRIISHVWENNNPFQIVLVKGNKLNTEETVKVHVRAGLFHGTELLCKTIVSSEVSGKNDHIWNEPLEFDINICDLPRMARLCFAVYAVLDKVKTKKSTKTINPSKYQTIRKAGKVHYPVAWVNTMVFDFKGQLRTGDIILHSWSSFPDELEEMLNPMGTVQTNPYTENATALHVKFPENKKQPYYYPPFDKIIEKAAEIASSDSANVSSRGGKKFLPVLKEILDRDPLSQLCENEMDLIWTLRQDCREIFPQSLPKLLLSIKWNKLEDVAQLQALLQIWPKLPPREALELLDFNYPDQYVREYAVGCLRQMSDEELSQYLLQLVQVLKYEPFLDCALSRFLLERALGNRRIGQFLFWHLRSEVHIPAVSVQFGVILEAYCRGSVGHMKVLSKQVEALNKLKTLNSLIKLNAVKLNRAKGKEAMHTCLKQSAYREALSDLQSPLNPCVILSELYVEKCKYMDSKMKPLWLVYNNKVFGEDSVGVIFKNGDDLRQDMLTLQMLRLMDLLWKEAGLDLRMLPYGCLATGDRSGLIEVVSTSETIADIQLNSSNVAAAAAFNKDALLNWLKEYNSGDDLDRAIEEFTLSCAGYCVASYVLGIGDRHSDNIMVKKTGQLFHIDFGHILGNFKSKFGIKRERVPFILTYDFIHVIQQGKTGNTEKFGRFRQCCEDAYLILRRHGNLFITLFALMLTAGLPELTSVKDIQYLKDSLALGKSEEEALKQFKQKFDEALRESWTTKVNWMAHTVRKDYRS
T1 sequence (P27986 whole entry partner): as the sequence (P27986 whole entry partner) above

The pIC50 is the IC50 on a negative log10 scale, so that one unit is a factor of ten. For the compound `CCNC(=O)Nc1ncc(-c2nc3c(c(N4CCOC[C@@H]4C)n2)CCN(C)C3)s1` [Example 106, (S)-1-ethyl-3-(5-(7-methyl-4-(3-methylmorpholino)-5,6,7,8-tetrahydropyrido[3,4-d]pyrimidin-2-yl)thiazol-2-yl)urea], the pIC50 on PI3 Kbeta (PI3 Kb), on PI3 Kgamma (PI3 Kg) and on PI3K delta (PI3 Kd) (Table 6) was less than 5.00 each time. For the same compound, the “Inhibition values (IC50) PI3Ka” value at PI3Kalpha (PI3Ka) is “D (D >10 μM)”.

For the compound `CCNC(=O)Nc1ccc(-c2nc3c(c(N4CCOCC4)n2)CN(C)C3)cc1` [Example 69, 1-Ethyl-3-(4-(6-methyl-4-morpholino-6,7-dihydro-5H-pyrrolo[3,4-d]pyrimidin-2-yl)phenyl)urea], the negative-log IC50 (pIC50) at PI3 Kbeta (PI3 Kb) is 5.00 to 6.00; at PI3 Kgamma (PI3 Kg), less than 5.00; on PI3K delta (PI3 Kd) (Table 6), less than 5.00; at PI3Kalpha (PI3Ka), 5.00 to 6.00.

Turning to `CCNC(=O)Nc1ccc(-c2nc3c(c(N4CCOC[C@@H]4C)n2)CN(C(C)C)C3)cc1` [Example 74, (S)-1-ethyl-3-(4-(6-isopropyl-4-(3-methylmorpholino)-6,7-dihydro-5H-pyrrolo[3,4-d]pyrimidin-2-yl)phenyl)urea], the pIC50 at PI3 Kbeta (PI3 Kb), at PI3 Kgamma (PI3 Kg) and at PI3K delta (PI3 Kd) (Table 6) was less than 5.00 each time. The “Inhibition values (IC50) PI3Ka” value at PI3Kalpha (PI3Ka) was “D (D >10 μM)”.

For `CCNC(=O)Nc1ccc(-c2nc3c(c(N4CCOC[C@@H]4C)n2)CCN(CC(C)C)C3)cc1.O=CO` [Example 76, (S)-1-ethyl-3-(4-(7-isobutyl-4-(3-methylmorpholino)-5,6,7,8-tetrahydropyrido[3,4-d]pyrimidin-2-yl)phenyl)urea formate], the pIC50 on PI3 Kbeta (PI3 Kb), at PI3 Kgamma (PI3 Kg) and at PI3K delta (PI3 Kd) (Table 6) was less than 5.00 throughout. The “Inhibition values (IC50) PI3Ka” value on PI3Kalpha (PI3Ka) is recorded as “D (D >10 μM)”.

Take `CCNC(=O)N1CCc2c(nc(-c3ccc(NC(=O)NC4CC4)cc3)nc2N2CCOC[C@@H]2C)C1` [Example 88, (S)-2-(4-(3-cyclopropylureido)phenyl)-N-ethyl-4-(3-methylmorpholino)-5,6-dihydropyrido[3,4-d]pyrimidine-7(8H)-carboxamide]: the pIC50 on PI3 Kbeta (PI3 Kb), on PI3 Kgamma (PI3 Kg) and on PI3K delta (PI3 Kd) (Table 6) was less than 5.00 in each case. Moreover, the “Inhibition values (IC50) PI3Ka” value at PI3Kalpha (PI3Ka) is recorded as “D (D >10 μM)”.

With `C[C@H]1COCCN1c1nc(-c2ccc(NC(=O)NCCO)cc2)nc2c1CN(C)C2` [Example 73, (S)-1-(2-hydroxyethyl)-3-(4-(6-methyl-4-(3-methylmorpholino)-6,7-dihydro-5H-pyrrolo[3,4-d]pyrimidin-2-yl)phenyl)urea], the pIC50 on PI3 Kbeta (PI3 Kb) was 5.00 to 6.00; on PI3 Kgamma (PI3 Kg), less than 5.00; at PI3K delta (PI3 Kd) (Table 6), 5.00 to 6.00; at PI3Kalpha (PI3Ka) it was 5.00 to 6.00.

For `CCOC(=O)N1Cc2nc(-c3ccc(NC(=O)Nc4ccncc4)cc3)nc(N3CCOC[C@@H]3C)c2C1` [Example 121, (S)-ethyl 4-(3-methylmorpholino)-2-(4-(3-(pyridin-4-yl)ureido)phenyl)-5H-pyrrolo[3,4-d]pyrimidine-6(7H)-carboxylate], the pIC50 at PI3 Kbeta (PI3 Kb), at PI3 Kgamma (PI3 Kg) and at PI3K delta (PI3 Kd) (Table 6) was less than 5.00 each time. At PI3Kalpha (PI3Ka), the “Inhibition values (IC50) PI3Ka” value is given as “D (D >10 μM)”.

As to `CCNC(=O)Nc1ccc(-c2nc3c(c(N4CCOC[C@@H]4C)n2)CN(C)C3)cc1F` [Example 85, (S)-1-ethyl-3-(2-fluoro-4-(6-methyl-4-(3-methylmorpholino)-6,7-dihydro-5H-pyrrolo[3,4-d]pyrimidin-2-yl)phenyl)urea], the pIC50 at PI3 Kbeta (PI3 Kb), at PI3 Kgamma (PI3 Kg) and at PI3K delta (PI3 Kd) (Table 6) was less than 5.00 each time. In addition, the “Inhibition values (IC50) PI3Ka” value at PI3Kalpha (PI3Ka) is given as “D (D >10 μM)”.

Consider `C[C@H]1COCCN1c1nc(-c2ccc(NC(=O)NC3CC3)cc2)nc2c1CCN(C(=O)C1CC1)C2` [Example 60, (S)-1-(4-(7-(cyclopropanecarbonyl)-4-(3-methylmorpholino)-5,6,7,8-tetrahydropyrido[3,4-d]pyrimidin-2-yl)phenyl)-3-cyclopropylurea], for which the pIC50 at PI3 Kbeta (PI3 Kb), on PI3 Kgamma (PI3 Kg), at PI3K delta (PI3 Kd) (Table 4) and on PI3K delta (PI3 Kd) (Table 6) was less than 5.00 each time. In addition, at PI3Kalpha (PI3Ka), the “Inhibition values (IC50) PI3Ka” value is given as “D (D >10 μM)”.

In the case of `C[C@H]1COCCN1c1nc(-c2ccc(NC(N)=O)cc2)nc2c1CN(C)C2` [Example 71, (S)-1-(4-(6-methyl-4-(3-methylmorpholino)-6,7-dihydro-5H-pyrrolo[3,4-d]pyrimidin-2-yl)phenyl)urea], the pIC50 at PI3 Kbeta (PI3 Kb), on PI3 Kgamma (PI3 Kg), on PI3K delta (PI3 Kd) (Table 6) and on PI3Kalpha (PI3Ka) was 5.00 to 6.00 each time.

Regarding `CCNC(=O)Nc1ccc(-c2nc3c(c(N4CCOCC4)n2)CN(C(=O)OCC)C3)cc1` [Example 70, Ethyl 2-(4-(3-ethylureido)phenyl)-4-morpholino-5H-pyrrolo[3,4-d]pyrimidine-6(7H)-carboxylate], the pIC50 on PI3 Kbeta (PI3 Kb) was less than 5.00; at PI3 Kgamma (PI3 Kg), less than 5.00; on PI3K delta (PI3 Kd) (Table 6), 5.00 to 6.00. The “Inhibition values (IC50) PI3Ka” value on PI3Kalpha (PI3Ka) is “D (D >10 μM)”.

Turning to `COC(=O)N1CCc2c(nc(-c3ccc(NC(=O)NC4CC4)cc3)nc2N2CCOC[C@@H]2C)C1` [Example 83, (S)-methyl 2-(4-(3-cyclopropylureido)phenyl)-4-(3-methylmorpholino)-5,6-dihydropyrido[3,4-d]pyrimidine-7(8H)-carboxylate], the negative logarithm of the IC50 (pIC50) at PI3 Kbeta (PI3 Kb), at PI3 Kgamma (PI3 Kg) and on PI3K delta (PI3 Kd) (Table 6) was less than 5.00 in each case. Further, the “Inhibition values (IC50) PI3Ka” value at PI3Kalpha (PI3Ka) is on record as “D (D >10 μM)”.

As to `CCNC(=O)Nc1ccc(-c2nc3c(c(N4CCOCC4)n2)CCN(C(C)=O)C3)cc1` [Example 97, 1-(4-(7-acetyl-4-morpholino-5,6,7,8-tetrahydropyrido[3,4-d]pyrimidin-2-yl)phenyl)-3-ethylurea], the pIC50 is 5.00 to 6.00 at PI3 Kbeta (PI3 Kb), less than 5.00 on PI3 Kgamma (PI3 Kg), 5.00 to 6.00 on PI3K delta (PI3 Kd) (Table 6) and 5.00 to 6.00 at PI3Kalpha (PI3Ka).

As to `CCNC(=O)Nc1ccc(-c2nc3c(c(N4CCOCC4)n2)CCN(C)C3)cc1` [Example 93, 1-ethyl-3-(4-(7-methyl-4-morpholino-5,6,7,8-tetrahydropyrido[3,4-d]pyrimidin-2-yl)phenyl)urea], the pIC50 on PI3 Kbeta (PI3 Kb), on PI3 Kgamma (PI3 Kg) and at PI3K delta (PI3 Kd) (Table 6) was less than 5.00 throughout. The “Inhibition values (IC50) PI3Ka” value on PI3Kalpha (PI3Ka) is given as “D (D >10 μM)”.

For the compound `COC(=O)N1Cc2nc(-c3ccc(NC(=O)NC4CC4)cc3)nc(N3CCOC[C@@H]3C)c2C1` [Example 86, (S)-methyl 2-(4-(3-cyclopropylureido)phenyl)-4-(3-methylmorpholino)-5H-pyrrolo[3,4-d]pyrimidine-6(7H)-carboxylate], the pIC50 at PI3 Kbeta (PI3 Kb), on PI3 Kgamma (PI3 Kg) and at PI3K delta (PI3 Kd) (Table 6) was less than 5.00 throughout. Further, on PI3Kalpha (PI3Ka), the “Inhibition values (IC50) PI3Ka” value is reported as “D (D >10 μM)”.

Turning to `C[C@H]1COCCN1c1nc(-c2ccc(NC(=O)NC3CC3)cc2)nc2c1CCN(C(=O)C(C)(C)C)C2` [Example 64, (S)-1-cyclopropyl-3-(4-(4-(3-methylmorpholino)-7-pivaloyl-5,6,7,8-tetrahydropyrido[3,4-d]pyrimidin-2-yl)phenyl)urea], the negative logarithm of the IC50 (pIC50) at PI3 Kbeta (PI3 Kb), at PI3 Kgamma (PI3 Kg) and at PI3K delta (PI3 Kd) (Table 6) was less than 5.00 each time. For the same compound, the “Inhibition values (IC50) PI3Ka” value on PI3Kalpha (PI3Ka) is recorded as “D (D >10 μM)”.

Source of the values: patent publication US8785457B2 (Cellzome Limited, priority 2009, dated 2014).
